Source: patent publication US6207404A, “Coumarin-based CYP3A fluorescent assay reagents” (Gentest Corporation, priority 1999, dated 2001)

How the values were obtained:
human CYP2B6 = conditions: Code et al. 1997; Morse and Lu 1998; cited from earlier work
other human P450s = conditions: Code et al. 1997; Morse and Lu 1998; cited from earlier work
[1] = tested on: panel of cDNA-expressed human P450 enzymes; conditions: Ono et al. (1996); cited from earlier work
CYP3A4 = conditions: in words; Crespi et al. 1997; cited from earlier work
human CYP3A4 [2] = molecular target: T1, human CYP3A4 (Homo sapiens, UniProt P08684)
T1 sequence (P08684 whole entry): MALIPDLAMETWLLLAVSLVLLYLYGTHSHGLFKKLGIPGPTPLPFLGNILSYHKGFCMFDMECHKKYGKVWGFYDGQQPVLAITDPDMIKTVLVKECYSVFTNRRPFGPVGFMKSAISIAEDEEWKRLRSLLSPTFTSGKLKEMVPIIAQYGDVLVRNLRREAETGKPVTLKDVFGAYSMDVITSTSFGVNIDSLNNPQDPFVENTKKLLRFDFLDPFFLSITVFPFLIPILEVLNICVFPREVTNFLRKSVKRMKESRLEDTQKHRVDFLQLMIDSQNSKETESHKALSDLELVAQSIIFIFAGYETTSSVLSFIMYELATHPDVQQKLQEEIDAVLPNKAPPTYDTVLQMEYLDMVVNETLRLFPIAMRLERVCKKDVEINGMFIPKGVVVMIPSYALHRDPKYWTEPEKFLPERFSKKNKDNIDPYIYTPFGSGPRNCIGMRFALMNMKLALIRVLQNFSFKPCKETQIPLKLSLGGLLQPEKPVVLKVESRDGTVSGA

human CYP3A4 [3] = molecular target: T1, human CYP3A4; experiment: Enzyme kinetics of substrate turnover with cDNA-expressed CYP3A4 (fluorometric); type: biochemical
Procedure: The evaluation of compounds of Formula I were initially performed by measuring the kinetics of turnover using cDNA-expressed CYP3A4. In most instances, Vmax and Km values are important for the optimization of the assay conditions and for setting the parameters for inhibition experiments. Fluorometric assays for the turnover of compounds of Formula I by CYP3A4 were performed based on a modification of the method by Crespi et al. Anal Biochem. 248, 188-190, (1997), (described below).
Example Compound I. Assays were conducted in 96 well microtiter plates (Corning COSTAR, cat. no. 3915). The substrate, compound I, was prepared in acetonitrile. After cofactors addition, the plates were prewarmed to 37° C. Incubations were initiated by the addition of prewarmed buffer and enzyme. The enzymes were commercially available, baculovirus/insect cell expressed human CYP3A4 (SUPERSOMES®, GENTEST Corporation). The amount of enzyme added per well was 1 pmole. […] Fluorescence per well was measured using a BMG FLUOstar Model 403 plate scanner controlled with an IBM-compatible computer. The metabolite was measured using an excitation wavelength of 410 nm and emission wavelength of 538 nm. Data was exported and analyzed using an Excel spreadsheet. The activity was quantified by comparing to a standard curve of 7-hydroxy-4-trifluoromethyl coumarin.

[4] = tested on: panel of cDNA-expressed human P450 enzymes; experiment: Selectivity of dealkylation in a panel of cDNA-expressed human P450 enzymes; type: biochemical
Text: The selectivity of various P450 isoforms for dealkylation of compound I was examined using a panel of commercially available human cDNA-expressed enzymes. A substrate that is selective for a single P450 isoform (substrate is catalytically turned over by a single P450 isoform) is a desirable trait in that its activity may be examined within a heterogeneous mixture of enzymes, for example, in human liver microsomes. […] Compound I is therefore a more useful substrate for probing CYP3A activity in a heterogeneous mixture than the previous substrate BzRes. These advantages permit the specific detection of low levels of a preselected cytochrome P450 enzyme (e.g., 3A4) contained in various types of samples, e.g., tissue samples, microsomes, and so forth.
Example Compound I. Assays were conducted as described in (1) above except: incubation time was 20 min.; enzymes were commercially available, baculovirus/insect cell expressed human P450s (SUPERSOMES®, GENTEST Corporation); and the amount of enzyme added per well was 10 pmole with the exception of 2.5 pmole for CYP3A enzymes.

[5] = Solubility noted in enzyme kinetics table; type: physicochemical; conditions: at >200 uM
[6] = Quantum yield of the fluorescent product; type: physicochemical; conditions: relative to the product of BzRes
human CYP3A4 [7] = molecular target: T1, human CYP3A4; experiment: biochemical; conditions: 37° C., 20 minutes

## CCOc1ccc2c(C(F)(F)F)cc(=O)oc2c1 [7-Ethoxy-4-trifluoromethylcoumarin]
Human CYP2B6
  O-dealkylation by human CYP2B6: O-dealkylated
Other human P450s
  O-dealkylation by other human P450s: O-dealkylated

## O=c1ccc2nc3ccc(OCc4ccccc4)cc3oc-2c1 [Benzyloxyresorufin, 7-benzyloxyresorufin]
[1]
  metabolism by other human cytochromes P450: significantly metabolized by other human cytochromes P450
CYP3A4
  enzymatic turnover: low enzymatic turnover
  specificity: poor specificity

## O=c1cc(C(F)(F)F)c2ccc(OCc3ccccc3)cc2o1 [Compound I, 7-Benzyloxy-4-trifluoromethylcoumarin]
Human CYP3A4 [2]
  IC50 values with compound I as the substrate compared with BzRes: tend to yield lower IC50 values
Human CYP3A4 [3]; cDNA-expressed CYP3A4, at 40 uM substrate
  Vmax (at 40 uM): 1.5 min⁻¹
Human CYP3A4 [3]; human, cDNA-expressed CYP3A4, 1 pmole/well, 37° C., 45 minutes
  Km at 0.75 h: > 200 µM
[4]; 20 min, 10 pmole/well (2.5 pmole for CYP3A enzymes)
  selectivity of dealkylation in panel of human P450 enzymes (FIG. 1): selective for CYP3A4
[4]; CYP1A1
  rank of CYP1A1 in dealkylation of the substrate: second best enzyme
[5]
  solubility (remark to Km >200 uM): exceeds solubility

## O=c1cc(C(F)(F)F)c2ccc(O)cc2o1 [Compound II, 7-hydroxy-4-trifluoromethylcoumarin]
[6]
  quantum yield of product relative to the product of benzyloxyresorufin: greater quantum yield

## CC[C@H]1OC(=O)[C@H](C)[C@@H](O[C@H]2C[C@@](C)(OC)[C@@H](O)[C@H](C)O2)[C@H](C)[C@@H](O[C@@H]2O[C@H](C)C[C@H](N(C)C)[C@H]2O)[C@](C)(O)C[C@@H](C)C(=O)[C@H](C)[C@@H](O)[C@]1(C)O [Erythromycin]
Human CYP3A4 [7]; CYP3A4 IC50, substrate BzRes, substrate BzRes
  IC50: 1700 nM
Human CYP3A4 [7]; CYP3A4 IC50, substrate I, substrate compound I (100 uM)
  IC50: 4070 nM
